For twelve compounds, Activity, growth and IC50 results are on record in ChEMBL document CHEMBL4619751, “Synthesis of novel spirobibenzopyrans as potent anticancer leads inducing apoptosis in HeLa cells” (Bioorg Med Chem Lett, 2020).

Molecules are shown by their SMILES. pIC50: −log10 of the molar value. The source made the active and inactive calls. The rule behind the calls is not given here.

In assay [1] the test system is HeLa. Put plainly: Induction of apoptosis in human HeLa cells assessed as nuclear fragmentation by acridine oranga/ethidium bromide staining based assay. The format is functional, cell-based.
Assay [2] relates to HeLa. Put plainly: Cell cycle arrest in human HeLa cells assessed as accumulation at sub G0/G1 phase at 10 uM measured after 48 hrs by FACS analysis. The format is functional, cell-based.
Assay [3] deals with HeLa. Put plainly: Cell cycle arrest in human HeLa cells assessed as accumulation at early G0/G1 phase at 10 uM measured after 48 hrs by FACS analysis. The format is functional, cell-based.
The test system of assay [4] is HeLa. The experiment in a line: Cytotoxicity against human HeLa cells assessed as cell proliferation at 10 uM by MTT assay relative to control. The format is functional. The conditions noted are these: read-out: Activity.
Assay [5] deals with HeLa. The experiment in a line: Cytotoxicity against human HeLa cells assessed as growth inhibition by MTT assay. The class given is functional, cell-based.
In assay [6] the test system is HeLa. The experiment in a line: Induction of DNA damage in human HeLa cells assessed as inhibition of DNA replication. The class given is functional, cell-based.
In assay [7] the test system is HeLa. Put plainly: Cell cycle arrest in human HeLa cells assessed as accumulation at S phase at 10 uM measured after 48 hrs by FACS analysis. The format is functional, cell-based.
Assay [8] concerns HeLa. The experiment in a line: Induction of DNA damage in human HeLa cells assessed as tail DNA formation at IC50 by alkaline Comet assay. The format is functional.
Assay [9] concerns HeLa. Put plainly: Induction of apoptosis in human HeLa cells assessed as chromatin condensation by acridine oranga/ethidium bromide staining based assay. The format is functional, cell-based.
In assay [10] the test system is HeLa. Put plainly: Cell cycle arrest in human HeLa cells assessed as accumulation at middle G0/G1 phase at 10 uM measured after 48 hrs by FACS analysis. The class given is functional, cell-based.
Assay [11] deals with HeLa. Put plainly: Cell cycle arrest in human HeLa cells assessed as accumulation at S phase at 50 uM measured after 48 hrs by FACS analysis. The class given is functional, cell-based.
Assay [12] deals with HeLa. Put plainly: Cell cycle arrest in human HeLa cells assessed as accumulation at sub G0/G1 phase at 50 uM measured after 48 hrs by FACS analysis. The format is functional, cell-based.

As to `COc1ccc2c(c1)C=C1CCCCC3=Cc4cc(OC)ccc4OC13O2`, the result with HeLa [1], in the assay on HeLa [2] and with HeLa [3] was Active. The growth at 10 µM in the assay on HeLa [4] came to 59.3%. Moreover, the pIC50 in the assay on HeLa [5] is 4.92.
As for `Clc1ccc2c(c1)C=C1CSCC3=Cc4cc(Cl)ccc4OC13O2`, in the assay with HeLa [4], the growth at 10 µM stood at 105%.
The same measure, in the same setting: to `Clc1cc(Cl)c2c(c1)C=C1CCCCC3=Cc4cc(Cl)cc(Cl)c4OC13O2` belongs 102%.
The same measure, in the same setting: to `C1=C2CCCCC3=Cc4ccccc4OC23Oc2ccccc21` belongs 80.2%.
On the same count and under the same terms, to `COc1ccc2c(c1)OC13Oc4cc(OC)ccc4C=C1CCCCC3=C2` belongs 108%.
Turning to `COc1ccc2c(c1)OC13Oc4cc(OC)ccc4C=C1CCCC3=C2`, the result in the assay with HeLa [2], with HeLa [6], with HeLa [7] and in the assay on HeLa [9] was Active. Moreover, the Activity with HeLa [8] came out at 3.32 um. In addition, the growth at 10 µM with HeLa [4] came out at 62.1%. Further, the pIC50 with HeLa [5] is 4.87.
Regarding `O=c1[nH]cc(F)c(=O)[nH]1` [FLUOROURACIL], the Activity in the assay with HeLa [8] was found to be 6.91 um. Further, the growth at 10 µM in the assay on HeLa [4] was 73.7%. Moreover, the pIC50 in the assay on HeLa [5] was 4.82.
With `Clc1ccc2c(c1)C=C1CCCCC3=Cc4cc(Cl)ccc4OC13O2`, in the assay on HeLa [4], the growth at 10 µM is 90.1%.
With `Clc1ccc2c(c1)C=C1CCCC3=Cc4cc(Cl)ccc4OC13O2`, the growth at 10 µM in the assay on HeLa [4] was 105%.
Regarding `COc1ccc2c(c1)C=C1CCCC3=Cc4cc(OC)ccc4OC13O2`, the result in the assay with HeLa [10], in the assay on HeLa [1], with HeLa [2] and with HeLa [7] was Active. Besides, the outcome with HeLa [11] and with HeLa [12] was inactive. Further, the growth at 10 µM in the assay on HeLa [4] came to 46.6%. For the same compound, in the assay on HeLa [5], the pIC50 is 4.97.
Consider `C1=C2CCCC3=Cc4ccccc4OC23Oc2ccccc21`, for which, in the assay with HeLa [4], the growth at 10 µM came to 77%.
Still for that read-out and setting: to `Brc1ccc2c(c1)C=C1CCCCC3=Cc4cc(Br)ccc4OC13O2` belongs 111%.
